From patent publication US20220233652A1, “Pharmaceutical Compositions Comprising Integration-Promoting Peptides” (priority 2018, published 2022)
Where two headings read alike, the source gives them in different places. No end group written: not given here.

Experiments:
[1] = Phase I/IIa clinical trial: safety and tolerability; type: in vivo, human; details: HIV patients, SC twice weekly, 1% poloxamer 188 and 9% lactose formulation; preliminary results
From the text: Patients are monitored for adverse events (AE) of the INS peptide such as rash, acute allergic reaction, bronchospasm, respiratory distress, and acute vascular leak syndrome. If a severe administration related reaction occurs, the drug administration is stopped. Blood chemistry, hematology, coagulation, and urinalysis are repeated on Days 1, 4, 8, 11, 15, 18, 22, 25 at the clinic visits.
The primary safety endpoint is the frequency, severity, and duration of side effects. Number of participants with treatment-related adverse events as assessed by CTCAE v4.03, are evaluated though study completion. Main adverse events evaluation is based on DADS Toxicity criteria (Division of AIDS DADS Table for Grading the Severity of Adult and Paediatric Adverse Events, Corrected Version 2.1): • Viral load • Lymphopenia/Neutropenia • Immuno-reaction over reaction/cytokine storm • Infection surrounding the administration site • Liver function (lab tests) • Kidney function (lab tests)
Incidence of withdrawal (drop-out rate) due to side effects is evaluated throughout the study.

[2] = test system: 1975 human lung cancer cells; assay: Lung cancer tumor mice model; type: in vivo, athymic nude mice; details: INS HCL and tumor-targeted lentiviral particles; lung cancer and pancreatic cancer models
Method: Two models of cancer were generated: lung cancer and pancreatic cancer. About 5×10^6 of 1975 human lung cancer cells per 0.1 ml PBS per mouse were injected to male 7 weeks old athymic nude mice (n=30). The cells were injected, subcutaneously at one site on the back of the mice. About 5×10^6 PANC-1 human pancreatic cancer cells per 0.1 ml PBS per mouse were injected to male 7 weeks old athymic nude mice (n=22). The cells were injected, subcutaneously at one site on the back of the mice. When tumors were palpable (˜0.3-0.5 cm^3), the mice were randomly divided into three groups (Table 27) and the viruses and/or peptides were injected, twice a week for two weeks.
The first day of the study was defined as ‘Day 1’. The animals were administrated IP with either Vehicle (PBS or Formulation), lentiviral particles and SC with test items according to Table 27 on days 1, 4, 8 and 11. Body weight and tumor volume were checked on days 3, 7, 11, 14 and 17 (the latter was measured with a caliper). At the end of the experiment, on day 17, the mice were anesthetized and then sacrificed, and the tumors were removed, as well as lung, spleen, kidney and liver.

[3] = Preliminary solubility test of INS peptide salts in co-solvents and water; type: physicochemical; details: for solubility: read-out: Approximate Solubility; for Solubility in PBS: physiological conditions
Method: Solubility of different INS peptide salts was measured in several co-solvents and in water.

[4] = Stability study of lyophilized formulation after reconstitution; type: physicochemical
Method: To obtain an isotonic solution having desired osmolality of about 300-330 mOsm/kg, the poloxamer percentage was reduced to 0.8% and the lactose percentage was reduced to 9.5%. The solution formulation F45 was prepared in a 40 ml clear glass vial according to Table 20. The pH was adjusted by NH4OH. […]
The physical and chemical stability of lyophilized powder obtained in Example 10 was investigated. The lyophilized powder was stored at −20° C. […] Formulations before filtration were used as a control (initial state) at each time point. […] At the time point: 0 h, 24 hours and 7 days appearance, pH and osmolarity were tested and the solutions were analyzed by HPLC for the presence of degradation. The recovery percent after filtration was also calculated. To investigate short-term in-use stability, additional 218 mg of lyophilized material was reconstituted, and the solution was stored at room temperature for 4 hours. […]

[5] = Stability of formulations F4, F7 and F10 (HPLC); type: physicochemical; details: F4, F7 and F10, ambient temperature and 4° C., 24 hours
Method: To investigate the stability of formulation F4, F7 and F10 they were stored at ambient temperature and at 4° C. Samples were taken out at time zero (initial) and after 24 hours and diluted 10 times with water prior to HPLC analysis. The results were compared to the standard peptide 0.5 mg/ml in water (STD).

## WTAVQMAVFIHNFKRK [INS HCl]
[1]
  Safety and tolerability: safe and well tolerable
[2]
  Decrease in growth of tumors: up to 50%
[3]; DMSO
  solubility: ≤ 10000 µg/mL
[3]; H2O
  Appearance in H2O: slightly opalescence
[3]; H2O, 10 mg/ml
  pH in H2O: 2.60
[3]; PBS
  Approximate Solubility: Not soluble
  Solubility in PBS: practically insoluble
[3]; PEG400
  Solubility in PEG400: poor solubility
  solubility: < 5000 µg/mL
[3]; Propylene glycol (PG), 5mg/ml
  Appearance in propylene glycol: clear solution
[3]; ethanol
  Solubility in ethanol: poor solubility
  solubility: < 5000 µg/mL
[3]; propylene glycol (PG)
  solubility: 5000 to 10000 µg/mL
[3]; propylene glycol, a clear solution was obtained
  Solubility in PG: moderate solubility
[3]; water
  Appearance of solution in water: solution with opalescence
  pH of solution in water: 2.6
[3]; water, pH 2.6, H2O
  solubility: > 10000 µg/mL
[4]; PES filters
  Peptide adsorbed to PES filters: about 30%
[4]; room temperature, no significant difference in comparison to control
  Time stable at room temperature after reconstitution: at least 4 hours
[5]
  Stability in formulations: high stability in all formulations

## WTAVQMAVFIHNFKRK [INS TFA]
[3]; DMSO
  Concentration dissolved in DMSO: ≤ 10000 µg/mL
[3]; solution in water or DMSO diluted in PBS
  Behaviour upon dilution in PBS: precipitated
[3]; water
  Concentration dissolved in water: ≤ 10000 µg/mL

## WTAVQMAVFIHNFKRK [INS acetate]
[3]; DMSO
  Solubility in DMSO: completely insoluble
[3]; PBS
  Solubility in PBS: completely insoluble
[3]; dissolved in low pH, pH raised
  pH above which the dissolved salt precipitated: above 4
[3]; water
  Solubility in water: soluble
